Measured values reported in patent US11427549B2, “Pyrimidinyloxy benzo-fused compounds as herbicides” (FMC Corporation, priority 2017, dated 2022).

Tests used:
[1] = test system: barnyardgrass (Echinochloa crus-galli); test: Test A preemergence, barnyardgrass; type: in vivo; conditions: Echinochloa crus-galli, pre-emergence, 240 h, 0 to 100 scale (0 no effect, 100 complete control), read-out: Plant response rating, Barnyardgrass; for pest or weed control at 31 g/ha: 31 g ai/ha; for pest or weed control at 125 g/ha: 125 g ai/ha
kochia (Kochia scoparia) [2] = test: Test A preemergence, kochia; type: in vivo; conditions: Bassia scoparia, pre-emergence, 240 h, 0 to 100 scale (0 no effect, 100 complete control), read-out: Plant response rating, Kochia; for pest or weed control at 31 g/ha: 31 g ai/ha; for pest or weed control at 125 g/ha: 125 g ai/ha
[3] = test system: ragweed (common ragweed, Ambrosia elatior); test: Test A preemergence, ragweed; type: in vivo; conditions: Ambrosia artemisiifolia, pre-emergence, 240 h, 0 to 100 scale (0 no effect, 100 complete control), read-out: Plant response rating, Ragweed; for pest or weed control at 31 g/ha: 31 g ai/ha; for pest or weed control at 125 g/ha: 125 g ai/ha
[4] = test system: ryegrass, Italian (Italian ryegrass, Lolium multiflorum); test: Test A preemergence, ryegrass, Italian; type: in vivo; conditions: Lolium multiflorum, pre-emergence, 240 h, 0 to 100 scale (0 no effect, 100 complete control), read-out: Plant response rating, Ryegrass, Italian; for pest or weed control at 31 g/ha: 31 g ai/ha; for pest or weed control at 125 g/ha: 125 g ai/ha
[5] = test system: foxtail, green (green foxtail, Setaria viridis); test: Test A preemergence, foxtail, green; type: in vivo; conditions: Setaria, pre-emergence, 240 h, 0 to 100 scale (0 no effect, 100 complete control), read-out: Plant response rating, Foxtail, Green
Description: Seeds of plant species selected from barnyardgrass (Echinochloa crus-galli), kochia (Kochia scoparia), ragweed (common ragweed, Ambrosia elatior), ryegrass, Italian (Italian ryegrass, Lolium multiflorum), foxtail, giant (giant foxtail, Setaria faberii), foxtail, green (green foxtail, Setaria viridis) and pigweed (Amaranthus retroflexus) were planted into a blend of loam soil and sand and treated preemergence with a directed soil spray using test chemicals formulated in a non-phytotoxic solvent mixture which included a surfactant.
At the same time, plants selected from these weed species and also wheat (Triticum aestivum), corn (Zea mays), blackgrass (Alopecurus myosuroides), and galium (catchweed bedstraw, Galium aparine) were planted in pots containing the same blend of loam soil and sand and treated with postemergence applications of test chemicals formulated in the same manner. Plants ranged in height from 2 to 10 cm and were in the one- to two-leaf stage for the postemergence treatment. Treated plants and untreated controls were maintained in a greenhouse for approximately 10 days, after which time all treated plants were compared to untreated controls and visually evaluated for injury. […] A dash (-) response means no test result.

[6] = test system: pigweed (Amaranthus retroflexus); test: Test A preemergence, pigweed; type: in vivo; conditions: Amaranthus retroflexus, pre-emergence, 240 h, 0 to 100 scale (0 no effect, 100 complete control), read-out: Plant response rating, Pigweed; for pest or weed control at 31 g/ha: 31 g ai/ha; for pest or weed control at 125 g/ha: 125 g ai/ha
[7] = test system: barnyardgrass (Echinochloa crus-galli); test: Test A postemergence, barnyardgrass; type: in vivo; conditions: Echinochloa crus-galli, post-emergence, 240 h, 0 to 100 scale (0 no effect, 100 complete control), read-out: Plant response rating, Barnyardgrass; for pest or weed control at 31 g/ha: 31 g ai/ha; for pest or weed control at 125 g/ha: 125 g ai/ha
kochia (Kochia scoparia) [8] = test: Test A postemergence, kochia; type: in vivo; conditions: Bassia scoparia, post-emergence, 240 h, 0 to 100 scale (0 no effect, 100 complete control), read-out: Plant response rating, Kochia; for pest or weed control at 31 g/ha: 31 g ai/ha; for pest or weed control at 125 g/ha: 125 g ai/ha
[9] = test system: ragweed (common ragweed, Ambrosia elatior); test: Test A postemergence, ragweed; type: in vivo; conditions: Ambrosia artemisiifolia, post-emergence, 240 h, 0 to 100 scale (0 no effect, 100 complete control), read-out: Plant response rating, Ragweed; for pest or weed control at 31 g/ha: 31 g ai/ha; for pest or weed control at 125 g/ha: 125 g ai/ha
[10] = test system: ryegrass, Italian (Italian ryegrass, Lolium multiflorum); test: Test A postemergence, ryegrass, Italian; type: in vivo; conditions: Lolium multiflorum, post-emergence, 240 h, 0 to 100 scale (0 no effect, 100 complete control), read-out: Plant response rating, Ryegrass, Italian; for pest or weed control at 31 g/ha: 31 g ai/ha; for pest or weed control at 125 g/ha: 125 g ai/ha
[11] = test system: pigweed (Amaranthus retroflexus); test: Test A postemergence, pigweed; type: in vivo; conditions: Amaranthus retroflexus, post-emergence, 240 h, 0 to 100 scale (0 no effect, 100 complete control), read-out: Plant response rating, Pigweed; for pest or weed control at 31 g/ha: 31 g ai/ha; for pest or weed control at 125 g/ha: 125 g ai/ha
[12] = test system: wheat (Triticum aestivum); test: Test A postemergence, wheat; type: in vivo; conditions: Triticum aestivum, post-emergence, 240 h, 0 to 100 scale (0 no effect, 100 complete control), read-out: Plant response rating, Wheat; for plant injury at 31 g/ha: 31 g ai/ha; for plant injury at 125 g/ha: 125 g ai/ha
corn (Zea mays) = test: Test A postemergence, corn; type: in vivo; conditions: Zea mays, post-emergence, 240 h, 0 to 100 scale (0 no effect, 100 complete control); for Corn plant response rating (crop injury, 0 = no effect, 100 = complete kill) at 31 g/ha: 31 g ai/ha; for Corn plant response rating (crop injury, 0 = no effect, 100 = complete kill) at 125 g/ha: 125 g ai/ha
[13] = test system: blackgrass (Alopecurus myosuroides); test: Test A postemergence, blackgrass; type: in vivo; conditions: Alopecurus myosuroides, post-emergence, 240 h, 0 to 100 scale (0 no effect, 100 complete control), read-out: Plant response rating, Blackgrass; for pest or weed control at 31 g/ha: 31 g ai/ha; for pest or weed control at 125 g/ha: 125 g ai/ha
[14] = test system: galium (catchweed bedstraw, Galium aparine); test: Test A postemergence, galium; type: in vivo; conditions: Galium, post-emergence, 240 h, 0 to 100 scale (0 no effect, 100 complete control), read-out: Plant response rating, Galium; for pest or weed control at 31 g/ha: 31 g ai/ha; for pest or weed control at 125 g/ha: 125 g ai/ha
rice (Oryza sativa) = test: Test B flooded paddy test, rice; conditions: Oryza sativa, read-out: Plant response rating, Rice (0 to 100 scale, 0 is no effect, 100 is complete control)
[15] = test system: ducksalad (Heteranthera limosa); test: Test B flooded paddy test, ducksalad; conditions: Heteranthera limosa, read-out: Plant response rating, Ducksalad (0 to 100 scale, 0 is no effect, 100 is complete control)
[16] = test system: barnyardgrass (Echinochloa crus-galli); test: Test B flooded paddy test, barnyardgrass; conditions: Echinochloa crus-galli, read-out: Plant response rating, Barnyardgrass (0 to 100 scale, 0 is no effect, 100 is complete control)

| SMILES | pest or weed control at 31 g/ha [1] | pest or weed control at 125 g/ha [1] | pest or weed control at 31 g/ha (kochia (Kochia scoparia) [2]) | pest or weed control at 125 g/ha (kochia (Kochia scoparia) [2]) | pest or weed control at 31 g/ha [3] | pest or weed control at 125 g/ha [3] | pest or weed control at 31 g/ha [4] | pest or weed control at 125 g/ha [4] | pest or weed control at 31 g/ha [6] | pest or weed control at 125 g/ha [6] | pest or weed control at 31 g/ha [7] | pest or weed control at 125 g/ha [7] | pest or weed control at 31 g/ha (kochia (Kochia scoparia) [8]) | pest or weed control at 125 g/ha (kochia (Kochia scoparia) [8]) | pest or weed control at 31 g/ha [9] | pest or weed control at 125 g/ha [9] | pest or weed control at 31 g/ha [10] | pest or weed control at 125 g/ha [10] | pest or weed control at 31 g/ha [11] | pest or weed control at 125 g/ha [11] | other results |
| --- | --- | --- | --- | --- | --- | --- | --- | --- | --- | --- | --- | --- | --- | --- | --- | --- | --- | --- | --- | --- | --- |
| O=C1CC(CCC(F)(F)F)c2c(Oc3ncc(Cl)cn3)cccc21 (centres unmarked) [Compound 11, 4-[(5-Chloro-2-pyrimidinyl)oxy]-2,3-dihydro-3-(3,3,3-trifluoropropyl)-1H-inden-1-one] | 0% | 50% | 0% | 20% | 0% | 0% | 0% | 20% | 10% | 100% | 20% | 30% | 20% | 50% | 0% | 10% | 30% | 40% | 40% | 50% | pest or weed control at 31 g/ha ([5]; 31 g ai/ha): 10%; pest or weed control at 125 g/ha ([5]; 125 g ai/ha): 70%; plant injury at 31 g/ha [12]: 0%; plant injury at 125 g/ha [12]: 10%; Corn plant response rating (crop injury, 0 = no effect, 100 = complete kill) at 31 g/ha (corn (Zea mays)): 0%; Corn plant response rating (crop injury, 0 = no effect, 100 = complete kill) at 125 g/ha (corn (Zea mays)): 10%; pest or weed control at 31 g/ha [13]: 0%; pest or weed control at 125 g/ha [13]: 20%; pest or weed control at 31 g/ha [14]: 10%; pest or weed control at 125 g/ha [14]: 40% |
| FC(F)(F)CCC1OCCc2cccc(Oc3ncc(Cl)cn3)c21 (centres unmarked) [Compound 32, 5-Chloro-2-[[3,4-dihydro-1-(3,3,3-trifluoropropyl)-1H-2-benzopyran-8-yl]oxy]pyrimidine] | 0% | 40% | 0% | 0% | 0% | 0% | 0% | 0% | 0% | 60% | 10% | 20% | 0% | 10% | 0% | 0% | 0% | 0% | 20% | 40% | plant injury at 31 g/ha [12]: 0%; plant injury at 125 g/ha [12]: 10%; Corn plant response rating (crop injury, 0 = no effect, 100 = complete kill) at 31 g/ha (corn (Zea mays)): 10%; Corn plant response rating (crop injury, 0 = no effect, 100 = complete kill) at 125 g/ha (corn (Zea mays)): 20%; pest or weed control at 31 g/ha [13]: 10%; pest or weed control at 125 g/ha [13]: 30%; pest or weed control at 31 g/ha [14]: 10%; pest or weed control at 125 g/ha [14]: 20%; plant injury at 250 g/ha (rice (Oryza sativa)): 0%; pest or weed control at 250 g/ha [15]: 95%; pest or weed control at 250 g/ha [16]: 0% |
| O=C1OCc2cccc(Oc3ncc(Cl)cn3)c2C1CCCCC(F)(F)F (centres unmarked) [Compound 34, 5-[(5-Chloro-2-pyrimidinyl)oxy]-1,4-dihydro-4-(5,5,5-trifluoropentyl)-3H-2-benzopyran-3-one] | 0% | 0% | 0% | 0% | 0% | 0% | 0% | 0% | 0% | 0% | 0% | 10% | 20% | 10% | 0% | 0% | 0% | 0% | 10% | 40% | plant injury at 31 g/ha [12]: 0%; plant injury at 125 g/ha [12]: 10%; Corn plant response rating (crop injury, 0 = no effect, 100 = complete kill) at 31 g/ha (corn (Zea mays)): 10%; Corn plant response rating (crop injury, 0 = no effect, 100 = complete kill) at 125 g/ha (corn (Zea mays)): 20%; pest or weed control at 31 g/ha [13]: 0%; pest or weed control at 125 g/ha [13]: 10%; pest or weed control at 31 g/ha [14]: 20%; pest or weed control at 125 g/ha [14]: 50%; plant injury at 250 g/ha (rice (Oryza sativa)): 0%; pest or weed control at 250 g/ha [15]: 0%; pest or weed control at 250 g/ha [16]: 0% |
